According to PubChem BioAssay AID1259407 (Chemical Carcinogenesis Research Information System (CCRIS), 2018):
Activity calls are given as the source filed them. No rule for the calls is given here.

Tested on: CCRIS mutagenicity, Ames/micronucleus/aberration tests
Assay: CCRIS mutagenicity studies
[1] = Test System: AMES SALMONELLA TYPHIMURIUM, Strain/Indicator: TA98, Metabolic Activation: NONE, Method: PREINCUBATION
[2] = Test System: AMES SALMONELLA TYPHIMURIUM, Strain/Indicator: TA98, Metabolic Activation: NONE, Method: STANDARD PLATE
[3] = Test System: AMES SALMONELLA TYPHIMURIUM, Strain/Indicator: TA100, Metabolic Activation: NONE, Method: PREINCUBATION
[4] = Test System: AMES SALMONELLA TYPHIMURIUM, Strain/Indicator: TA100, Metabolic Activation: NONE, Method: STANDARD PLATE

O=C1CN(/N=C/c2ccc([N+](=O)[O-])o2)C(=O)N1
mutagenic call (End Point: IN VITRO CHROMOSOMAL ABERRATIONS, Test System: CHO CELLS, Metabolic Activation: NONE): active; positive
mutagenic call (End Point: IN VITRO CHROMOSOMAL ABERRATIONS, Test System: CHO CELLS, Metabolic Activation: RAT, LIVER, S-9, AROCLOR 1254): active; positive
mutagenic call (Test System: AMES SALMONELLA TYPHIMURIUM, Strain/Indicator: TA97, Metabolic Activation: NONE, Method: FLUCTUATION TEST): active; positive
mutagenic call (Test System: AMES SALMONELLA TYPHIMURIUM, Strain/Indicator: TA97, Metabolic Activation: NONE, Method: STANDARD PLATE): active; positive
mutagenic call (Test System: AMES SALMONELLA TYPHIMURIUM, Strain/Indicator: TA98(1,8-DNP6), Metabolic Activation: NONE, Method: STANDARD PLATE): active; positive
mutagenic call (Test System: AMES SALMONELLA TYPHIMURIUM, Strain/Indicator: TA98(1,8-DNP6), Metabolic Activation: RAT, LIVER, S-9, 3-METHYLCHOLANTHRENE, Method: STANDARD PLATE): active; positive
mutagenic call (Test System: AMES SALMONELLA TYPHIMURIUM, Strain/Indicator: TA98(NR), Metabolic Activation: NONE, Method: STANDARD PLATE): active; positive
mutagenic call (Test System: AMES SALMONELLA TYPHIMURIUM, Strain/Indicator: TA98(NR), Metabolic Activation: RAT, LIVER, S-9, 3-METHYLCHOLANTHRENE, Method: STANDARD PLATE): active; positive
mutagenic call (Test System: AMES SALMONELLA TYPHIMURIUM, Strain/Indicator: TA98, Metabolic Activation: HAMSTER, LIVER, S-9, AROCLOR 1254, Method: PREINCUBATION): active; positive
mutagenic call (Test System: AMES SALMONELLA TYPHIMURIUM, Strain/Indicator: TA98, Metabolic Activation: NONE): inactive; negative
mutagenic call (Test System: AMES SALMONELLA TYPHIMURIUM, Strain/Indicator: TA98, Metabolic Activation: NONE, Method: FLUCTUATION (MICROTITER)): active; positive
mutagenic call [1]: active; positive
mutagenic call [2]: active; positive
mutagenic call (Test System: AMES SALMONELLA TYPHIMURIUM, Strain/Indicator: TA98, Metabolic Activation: RAT, LIVER, S-9, 3-METHYLCHOLANTHRENE, Method: STANDARD PLATE): active; positive
mutagenic call (Test System: AMES SALMONELLA TYPHIMURIUM, Strain/Indicator: TA98, Metabolic Activation: RAT, LIVER, S-9, AROCLOR 1254, Method: PREINCUBATION): active; positive
mutagenic call (Test System: AMES SALMONELLA TYPHIMURIUM, Strain/Indicator: TA98, Metabolic Activation: S-9): inactive; negative
mutagenic call (Test System: AMES SALMONELLA TYPHIMURIUM, Strain/Indicator: TA100, Metabolic Activation: HAMSTER, LIVER, S-9, AROCLOR 1254, Method: PREINCUBATION): active; positive
mutagenic call (Test System: AMES SALMONELLA TYPHIMURIUM, Strain/Indicator: TA100, Metabolic Activation: NONE): active; positive
mutagenic call [3]: active; positive
mutagenic call [4]: active; positive
mutagenic call (Test System: AMES SALMONELLA TYPHIMURIUM, Strain/Indicator: TA100, Metabolic Activation: RAT, LIVER, S-9, AROCLOR 1254, Method: PREINCUBATION): active; positive
mutagenic call (Test System: AMES SALMONELLA TYPHIMURIUM, Strain/Indicator: TA100, Metabolic Activation: S-9): active; positive
mutagenic call (Test System: AMES SALMONELLA TYPHIMURIUM, Strain/Indicator: TA102, Metabolic Activation: NONE, Method: STANDARD PLATE): active; positive
mutagenic call (Test System: AMES SALMONELLA TYPHIMURIUM, Strain/Indicator: TA1535, Metabolic Activation: HAMSTER, LIVER, S-9, AROCLOR 1254, Method: PREINCUBATION): inactive; negative
mutagenic call (Test System: AMES SALMONELLA TYPHIMURIUM, Strain/Indicator: TA1535, Metabolic Activation: NONE, Method: PREINCUBATION): inactive; negative
mutagenic call (Test System: AMES SALMONELLA TYPHIMURIUM, Strain/Indicator: TA1535, Metabolic Activation: RAT, LIVER, S-9, AROCLOR 1254, Method: PREINCUBATION): inactive; negative
mutagenic call (Test System: AMES SALMONELLA TYPHIMURIUM, Strain/Indicator: TA1537, Metabolic Activation: HAMSTER, LIVER, S-9, AROCLOR 1254, Method: PREINCUBATION): inactive; negative
mutagenic call (Test System: AMES SALMONELLA TYPHIMURIUM, Strain/Indicator: TA1537, Metabolic Activation: NONE, Method: FLUCTUATION (MICROTITER)): inactive; negative
mutagenic call (Test System: AMES SALMONELLA TYPHIMURIUM, Strain/Indicator: TA1537, Metabolic Activation: NONE, Method: PREINCUBATION): inactive; negative
mutagenic call (Test System: AMES SALMONELLA TYPHIMURIUM, Strain/Indicator: TA1537, Metabolic Activation: RAT, LIVER, S-9, AROCLOR 1254, Method: PREINCUBATION): inactive; negative
mutagenic call (Test System: AMES SALMONELLA TYPHIMURIUM, Strain/Indicator: TA2638, Metabolic Activation: NONE, Method: STANDARD PLATE): active; positive
mutagenic call (Test System: AMES SALMONELLA TYPHIMURIUM, Strain/Indicator: TA7001, Metabolic Activation: NONE, Method: FLUCTUATION (MICROTITER)): inactive; negative
mutagenic call (Test System: AMES SALMONELLA TYPHIMURIUM, Strain/Indicator: TA7002, Metabolic Activation: NONE, Method: FLUCTUATION (MICROTITER)): active; positive
mutagenic call (Test System: AMES SALMONELLA TYPHIMURIUM, Strain/Indicator: TA7003, Metabolic Activation: NONE, Method: FLUCTUATION (MICROTITER)): inactive; negative
mutagenic call (Test System: AMES SALMONELLA TYPHIMURIUM, Strain/Indicator: TA7004, Metabolic Activation: NONE, Method: FLUCTUATION (MICROTITER)): active; positive
mutagenic call (Test System: AMES SALMONELLA TYPHIMURIUM, Strain/Indicator: TA7005, Metabolic Activation: NONE, Method: FLUCTUATION (MICROTITER)): active; positive
mutagenic call (Test System: AMES SALMONELLA TYPHIMURIUM, Strain/Indicator: TA7006, Metabolic Activation: NONE, Method: FLUCTUATION (MICROTITER)): active; positive
mutagenic call (Test System: CHINESE HAMSTER OVARY, Strain/Indicator: CHO-AS52, Metabolic Activation: NONE): inactive; negative
mutagenic call (Test System: CHINESE HAMSTER OVARY, Strain/Indicator: CHO-AS52, Metabolic Activation: RAT, LIVER, S-9, 3-METHYLCHOLANTHRENE): inactive; negative
mutagenic call (Test System: CHINESE HAMSTER OVARY, Strain/Indicator: CHO-K1-BH4, Metabolic Activation: NONE): inactive; negative
mutagenic call (Test System: CHINESE HAMSTER OVARY, Strain/Indicator: CHO-K1-BH4, Metabolic Activation: RAT, LIVER, S-9, 3-METHYLCHOLANTHRENE): active; positive
mutagenic call (Test System: CHINESE HAMSTER OVARY, Strain/Indicator: CHO-UV5, Metabolic Activation: NONE): inactive; negative
mutagenic call (Test System: CHINESE HAMSTER OVARY, Strain/Indicator: CHO-UV5, Metabolic Activation: RAT, LIVER, S-9, 3-METHYLCHOLANTHRENE): active; positive
mutagenic call (Test System: E. COLI, Strain/Indicator: EE97, Metabolic Activation: NONE, Method: FLUCTUATION TEST): active; positive
mutagenic call (Test System: E. COLI, Strain/Indicator: WP2 (PKM101), Metabolic Activation: NONE, Method: STANDARD PLATE): active; positive
mutagenic call (Test System: E. COLI, Strain/Indicator: WP2, Metabolic Activation: NONE, Method: FLUCTUATION TEST): inactive; negative
mutagenic call (Test System: E. COLI, Strain/Indicator: WP2, Metabolic Activation: NONE, Method: SPOT): active; positive
mutagenic call (Test System: E. COLI, Strain/Indicator: WP2 UVRA (PKM101), Metabolic Activation: NONE, Method: STANDARD PLATE): active; positive
mutagenic call (Test System: E. COLI, Strain/Indicator: WP2 UVRA, Metabolic Activation: NONE, Method: SPOT): active; positive
mutagenic call (Test System: E. COLI, Strain/Indicator: WP2 UVRA, Metabolic Activation: NONE, Method: STANDARD PLATE): active; positive
mutagenic call (Test System: MOUSE LYMPHOMA, Strain/Indicator: L5178Y (TK+/TK-), Metabolic Activation: NONE, Method: SUSPENSION/PLATE): active; positive

c1ccc2c(c1)CC[C@H]1CCC[C@@H]3O[C@]213
mutagenic call [2]: inactive; negative
mutagenic call [4]: inactive; negative

c1ccc(Cn2ccnc2)cc1
mutagenic call [1]: inactive; negative
mutagenic call (Test System: AMES SALMONELLA TYPHIMURIUM, Strain/Indicator: TA98, Metabolic Activation: RAT, LIVER, S-9, N-BENZYLIMIDAZOLE, Method: PREINCUBATION): inactive; negative
mutagenic call (Test System: AMES SALMONELLA TYPHIMURIUM, Strain/Indicator: TA98, Metabolic Activation: RAT, LIVER, S-9, Method: PREINCUBATION): inactive; negative
mutagenic call [3]: inactive; negative
mutagenic call (Test System: AMES SALMONELLA TYPHIMURIUM, Strain/Indicator: TA100, Metabolic Activation: RAT, LIVER, S-9, N-BENZYLIMIDAZOLE, Method: PREINCUBATION): active; positive
mutagenic call (Test System: AMES SALMONELLA TYPHIMURIUM, Strain/Indicator: TA100, Metabolic Activation: RAT, LIVER, S-9, Method: PREINCUBATION): active; positive
